What was measured:
[1] = Solubility of amphiphilic compound in pure water; format: physicochemical
[2] = Compatibility / phase separation of amphiphilic compound with amphiphilic surfactant system in water (microscope, visual appearance); format: physicochemical; settings: concentrations as in the label, SLES alone at 12 wt. %
Procedure: Further, in certain embodiments, the amphiphilic compound forms a separate phase from the amphiphilic surfactant system when the amphiphilic surfactant system and the amphiphilic compound are combined in water. In this respect, the separate phase is determined by combining from 5 wt. % up to 70 wt. % of a total concentration of the amphiphilic compound and the amphiphilic surfactant system, based on a total weight of the amphiphilic compound, the amphiphilic surfactant system, and water totaling 100 wt. %, with the ratio of the amphiphilic surfactant system to the amphiphilic compound ranging from 99:1 to 50:50, preferably from 90:10 to 60:40, more preferably from 80:20 to 70:30, and determining whether any objects larger than 150 nm are observed using a conventional microscope, preferably an Olympus IX71 conventional microscope, equipped with 100× oil objective.
With respect to the amphiphilic compounds being immiscible with a combination of the amphiphilic surfactant system and water, the amphiphilic compounds can form a separate phase from the amphiphilic surfactant system in water at 25° C. […]
The interfacial tension was measured using Sigma 701 tensiometer, and compatibility was observed using Olympus IX71 conventional microscope equipped with 100× oil objective, as described above.

Compound | solubility in water [1] [wt %)] | also measured
CCCCCCCCCCCCCCCCCC(=O)OCC[N+](C)(C)CCOC(=O)CCCCCCCCCCCCCCCCC.[Cl-] [DEEDMAC, Dimethylbis[2-[(1-oxooctadecyl)oxy]ethyl]ammonium chloride] | < 1 | 
CCCCCCCCCC[N+](C)(C)CCCCCCCCCC.[Cl-] [Maquat 4450, didecyldimethylammonium chloride] |  | solubility in water (in words) [1]: high water solubility
CCCCCCCCCCCCCOC(=O)CC(C(=O)OCCCCCCCCCCCCC)S(=O)(=O)O.[Na] (stereo not shown) [Sodium bis(tridecyl) sulfosuccinate] | < 1 | 
sodium laureth sulfate [sodium laureth sulfate (SLES)] |  | visual appearance (FIG. 2) [2]: transparent, and therefore, no phase separation

Source: patent publication US20240299273A1, “MULTIPHASIC LIQUID COMPOSITIONS FOR IMPROVED DEPOSITION OF ACTIVE INGREDIENTS” (SPECIALITY OPERATIONS FRANCE, priority 2021, published 2024)
